One data set has as its target T1, PI3Kδ (p110δ/p85a) (Homo sapiens, UniProt O00329).
T1 construct: purchased Invitrogen PV6452
The data set is described as follows: ADP-Glo kinase inhibition, PI3Kδ. Particulars: read-out: IC50 PI3Kδ Biochemical. How it is done: In Example 7, the inhibitory effects of Sample 6 prepared in Example 6 above on kinases PI3Kα, PI3Kβ, PI3Kγ and PI3Kδ were tested.
The kinases used in the experiment were respectively purchased from: • PI3Kα (p110α/p85α), purchased from Invitrogen, under Cat. No. PV4788; • PI3Kβ (p110β), purchased from eurofins, under Cat. No. 14-603M; • PI3Kδ (p110δ/p85a), purchased from Invitrogen, under Cat. No. PV6452; and • PI3Kγ (p110γ), purchased from Invitrogen, under Cat. No. PR8641C. • Firstly, a 1× kinase buffer solution was prepared, which comprised: • 50 mM HEPES, pH 7.5 • 3 mM MgCl2 • 1 mM EGTA • 100 mM NaCl • 0.03% CHAPS • 2 mM DTT
On kinase PI3Kδ, the final detection concentration of the compound was 1 μM. 100× concentration was prepared, i.e., 100 μM. 90 μL of 100% DMSO was added to the second well in row B on a 96-well plate, 10 μL of a 1000 μM compound solution was then taken from the second well in row A, and 3-fold serial dilution was made to obtain a total of 10 concentrations.
50 μL of 100% DMSO was transferred to two empty wells as Max well and Min well, respectively.
50 nL of the compound was transferred into a 384-well plate using ECHO550. […]
Finally, the chemiluminescence values were read from Envision 2104 Multi-label Reader and subjected to curve fitting, and IC50 was calculated.
A general note: ADP-Glo first removes unused ATP, then detects ADP through luciferase.

In data set [1] the test system is human-derived lymphoma DoHH-2 cell line. The data set is described as follows: Human-derived lymphoma DoHH-2 subcutaneous xenograft in CB17/SCID female immunodeficient mice. Type of data set: in vivo, mouse. Particulars: Day 24. How it is done:
In Example 8, the anti-tumor effects of p-toluenesulfonate of Compound A at various dosages by intragastric administration on human-derived lymphoma DoHH-2 cell line subcutaneous transplantation CB17/SCID female immunodeficient mouse model were evaluated.
7-9-week-old CB17/SCID female immunodeficient mice were subcutaneously inoculated with […] DoHH-2 cells to establish a subcutaneous human lymphoma xenograft tumor model. When the average tumor volume in the mice reached 68 mm^3, the mice were randomly divided into groups and dosed on the day of grouping. The treatment method for each treatment group and vehicle control group was as follows:
p-toluenesulfonate of Compound A (Sample 6), given 100 mg/kg (p.o. QD) group, once daily, for 25 days (days 0-24);
p-toluenesulfonate of Compound A (Sample 6), given 30 mg/kg (p.o. QD) group, once daily, for 25 days (days 0-24);
positive treatment group (Duvelisib, purchased from Shanghai Lollane biological technology Co., Ltd.), given 50 mg/kg (p.o. BID) twice daily with an interval of 12 h, for 24 days; and
vehicle control group (5% DMSO/40% PEG400/55% water, by volume) (p.o. QD), given once daily, for 25 days (days 0-24).
There were 10 mice in each group, and all the mice were administered starting on the day of grouping (Day 0) and euthanized on Day 24 after grouping (Day 24). The efficacy was evaluated according to the tumor volume at the end point of the experiment.
The abbreviation p.o. stood for oral gavage, QD stood for once daily, and BID stood for twice daily.
The relative tumor inhibition rate (TGI) was calculated by the following formula: […]
T and C were respectively the average tumor volumes in the experimental group and the vehicle control group at a specific time point.
(In general: Xenograft models place foreign cells or tissue in a host animal.)

In a further data set the target is T2, PI3Kγ (Mus musculus, UniProt Q9JHG7).
T2 construct: host or cells: Raw264.7 cells
The data set is described as follows: Akt phosphorylation in Raw264.7 cells stimulated by c5α (AlphaLISA). The note with it: phosphorylation of Akt, read-out: IC50 PI3Kγ Cell-based. How it is done:
(§1) In addition, taking Sample 6 as an example, the inhibitory effects thereof on PI3Kα, PI3Kβ, PI3Kγ and PI3Kδ in corresponding cells were determined. The activity of PI3Kα was detected by the phosphorylation level of Akt in C2Cl2 cells stimulated by IGF-1, the activity of PI3Kβ was detected by the phosphorylation level of Akt in PC-3 cells stimulated by LPA, the activity of PI3Kγ was detected by the phosphorylation level of Akt in Raw264.7 cells stimulated by c5α, and the activity of PI3Kδ was detected by the phosphorylation level of Akt in Raji cells stimulated by IgM. The phosphorylation level of Akt in cells was determined by means of AlphaLISA technique from PerkinElemer.
(§2) The C2C12 cells, PC-3 cells, Raw264.7 cells and Raji cells were all purchased from ATCC.

Data set [2] is described as follows: Solid stability, 40° C./75% RH and 60° C., one week (HPLC purity, XRPD). The data set is classed as physicochemical. As for the experimental part:
Appropriate amounts of Compound A and p-toluenesulfonate of Compound A (Sample 5, crystal form I) were respectively placed in 40° C./75% RH and 60° C. environments for one week to determine solid stability. At days 0 and 7, HPLC purity analysis and solid XRPD determination were carried out, and some of the results were as shown in Table 7.

A further data set has as its target T3, PI3Kβ (Homo sapiens, UniProt P42338).
T3 construct: host or cells: PC-3 cells
Description: Akt phosphorylation in PC-3 cells stimulated by LPA (AlphaLISA). Particulars: phosphorylation of Akt, read-out: IC50 PI3Kβ Cell-based. How it is done: as §1, §2
Background: In Alpha technology, singlet oxygen from a donor bead excites a nearby acceptor bead.

A short description of data set [3]: Crystal form stability under grinding (XRPD). Type of data set: physicochemical. The note with it: ground in a mortar for 2 min. How it is done:
In addition, the stability of p-toluenesulfonate crystal form I (Sample 8) under grinding and high humidity conditions was investigated.
A certain amount of p-toluenesulfonate crystal form I was ground in a mortar for 2 min and then measured by XRPD.

This note sets out measurements from patent US20240182407A1, “QUINOLINE COMPOUND SALT OR CRYSTAL FORM, PREPARATION METHOD THEREFOR, AND APPLICATION THEREOF” (Nanjing Zenshine Pharmaceuticals Co., Ltd., priority 2021, published 2024).

Molecules are shown by their SMILES. “And” between values parts separate entries of the source, which are not always exact repeats. Equal values may be shown once.

For orientation: IC50 means the concentration that inhibits the measured activity by half.

T1 sequence (O00329 whole entry): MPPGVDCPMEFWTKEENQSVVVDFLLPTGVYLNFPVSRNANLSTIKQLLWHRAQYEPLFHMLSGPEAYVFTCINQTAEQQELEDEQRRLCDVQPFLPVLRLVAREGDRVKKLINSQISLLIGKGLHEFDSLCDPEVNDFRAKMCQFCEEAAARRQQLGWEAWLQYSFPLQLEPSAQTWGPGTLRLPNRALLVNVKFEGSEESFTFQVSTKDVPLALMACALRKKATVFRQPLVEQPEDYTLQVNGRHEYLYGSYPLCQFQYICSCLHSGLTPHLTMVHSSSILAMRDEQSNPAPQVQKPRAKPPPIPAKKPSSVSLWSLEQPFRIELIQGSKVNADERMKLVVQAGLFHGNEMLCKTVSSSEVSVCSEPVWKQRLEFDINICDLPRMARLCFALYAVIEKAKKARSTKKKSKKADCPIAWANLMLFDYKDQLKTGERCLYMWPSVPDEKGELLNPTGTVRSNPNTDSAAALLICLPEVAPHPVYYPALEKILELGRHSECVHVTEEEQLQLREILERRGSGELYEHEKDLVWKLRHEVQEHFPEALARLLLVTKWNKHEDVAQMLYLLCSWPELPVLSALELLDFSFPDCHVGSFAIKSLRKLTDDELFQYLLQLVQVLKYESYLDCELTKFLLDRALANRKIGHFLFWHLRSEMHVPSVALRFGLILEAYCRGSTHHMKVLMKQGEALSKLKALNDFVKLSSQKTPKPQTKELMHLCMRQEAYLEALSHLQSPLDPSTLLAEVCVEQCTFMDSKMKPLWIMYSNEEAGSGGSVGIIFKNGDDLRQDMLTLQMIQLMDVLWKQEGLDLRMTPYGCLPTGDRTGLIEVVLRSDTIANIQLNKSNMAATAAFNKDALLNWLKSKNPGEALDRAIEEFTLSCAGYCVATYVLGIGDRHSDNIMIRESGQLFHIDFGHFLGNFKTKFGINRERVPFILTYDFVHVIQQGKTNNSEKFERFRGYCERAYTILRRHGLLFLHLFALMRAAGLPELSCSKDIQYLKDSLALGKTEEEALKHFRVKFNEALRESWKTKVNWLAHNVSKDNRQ
T1 sequence (P27986 whole entry partner): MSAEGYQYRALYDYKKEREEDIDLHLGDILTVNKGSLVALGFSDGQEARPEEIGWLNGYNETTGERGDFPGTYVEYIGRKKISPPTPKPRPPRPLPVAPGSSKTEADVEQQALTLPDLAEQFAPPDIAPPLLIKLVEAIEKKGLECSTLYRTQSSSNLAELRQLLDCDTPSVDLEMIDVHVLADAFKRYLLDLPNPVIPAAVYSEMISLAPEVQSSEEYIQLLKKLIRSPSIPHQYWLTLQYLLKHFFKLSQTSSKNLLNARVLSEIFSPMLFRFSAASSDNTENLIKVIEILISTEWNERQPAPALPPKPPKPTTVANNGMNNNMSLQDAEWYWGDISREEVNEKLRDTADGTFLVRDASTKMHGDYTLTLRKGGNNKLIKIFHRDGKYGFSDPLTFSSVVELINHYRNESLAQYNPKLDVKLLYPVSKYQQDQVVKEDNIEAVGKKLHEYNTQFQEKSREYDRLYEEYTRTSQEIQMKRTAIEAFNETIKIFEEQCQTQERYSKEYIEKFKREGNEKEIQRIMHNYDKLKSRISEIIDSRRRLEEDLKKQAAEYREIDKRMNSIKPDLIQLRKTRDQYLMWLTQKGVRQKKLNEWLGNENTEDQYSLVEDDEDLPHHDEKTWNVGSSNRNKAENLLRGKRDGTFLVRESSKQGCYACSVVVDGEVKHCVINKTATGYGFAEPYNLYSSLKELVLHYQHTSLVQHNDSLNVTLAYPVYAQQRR
T2 sequence (Q9JHG7 whole entry): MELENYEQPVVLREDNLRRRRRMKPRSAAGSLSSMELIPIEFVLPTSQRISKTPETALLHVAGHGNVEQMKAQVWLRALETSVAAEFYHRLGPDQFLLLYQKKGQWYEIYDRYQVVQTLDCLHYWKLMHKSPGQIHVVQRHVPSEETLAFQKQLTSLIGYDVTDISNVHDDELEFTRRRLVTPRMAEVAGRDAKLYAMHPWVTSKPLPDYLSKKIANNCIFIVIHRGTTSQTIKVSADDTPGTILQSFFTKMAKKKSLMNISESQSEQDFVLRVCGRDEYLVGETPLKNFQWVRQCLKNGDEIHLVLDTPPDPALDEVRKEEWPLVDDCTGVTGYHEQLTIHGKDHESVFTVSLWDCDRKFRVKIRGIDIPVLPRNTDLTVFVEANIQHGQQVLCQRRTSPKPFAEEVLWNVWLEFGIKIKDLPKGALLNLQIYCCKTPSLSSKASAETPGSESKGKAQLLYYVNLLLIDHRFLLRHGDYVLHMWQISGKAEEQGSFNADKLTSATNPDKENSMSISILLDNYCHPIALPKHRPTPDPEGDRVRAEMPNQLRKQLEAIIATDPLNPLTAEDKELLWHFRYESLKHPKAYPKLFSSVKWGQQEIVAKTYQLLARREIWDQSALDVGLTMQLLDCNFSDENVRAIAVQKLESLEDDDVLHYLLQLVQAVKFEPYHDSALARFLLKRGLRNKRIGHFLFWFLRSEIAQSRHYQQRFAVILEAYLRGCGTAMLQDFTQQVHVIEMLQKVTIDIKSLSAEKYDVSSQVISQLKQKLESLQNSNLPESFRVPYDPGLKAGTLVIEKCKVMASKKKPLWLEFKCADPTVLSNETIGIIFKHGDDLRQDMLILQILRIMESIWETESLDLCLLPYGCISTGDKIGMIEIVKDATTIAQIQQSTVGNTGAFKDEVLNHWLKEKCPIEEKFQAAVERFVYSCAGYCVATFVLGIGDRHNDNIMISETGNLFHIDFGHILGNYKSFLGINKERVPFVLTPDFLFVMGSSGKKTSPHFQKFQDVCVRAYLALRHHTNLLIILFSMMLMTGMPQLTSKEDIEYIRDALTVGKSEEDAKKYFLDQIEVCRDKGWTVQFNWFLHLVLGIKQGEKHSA
T3 sequence (P42338 whole entry): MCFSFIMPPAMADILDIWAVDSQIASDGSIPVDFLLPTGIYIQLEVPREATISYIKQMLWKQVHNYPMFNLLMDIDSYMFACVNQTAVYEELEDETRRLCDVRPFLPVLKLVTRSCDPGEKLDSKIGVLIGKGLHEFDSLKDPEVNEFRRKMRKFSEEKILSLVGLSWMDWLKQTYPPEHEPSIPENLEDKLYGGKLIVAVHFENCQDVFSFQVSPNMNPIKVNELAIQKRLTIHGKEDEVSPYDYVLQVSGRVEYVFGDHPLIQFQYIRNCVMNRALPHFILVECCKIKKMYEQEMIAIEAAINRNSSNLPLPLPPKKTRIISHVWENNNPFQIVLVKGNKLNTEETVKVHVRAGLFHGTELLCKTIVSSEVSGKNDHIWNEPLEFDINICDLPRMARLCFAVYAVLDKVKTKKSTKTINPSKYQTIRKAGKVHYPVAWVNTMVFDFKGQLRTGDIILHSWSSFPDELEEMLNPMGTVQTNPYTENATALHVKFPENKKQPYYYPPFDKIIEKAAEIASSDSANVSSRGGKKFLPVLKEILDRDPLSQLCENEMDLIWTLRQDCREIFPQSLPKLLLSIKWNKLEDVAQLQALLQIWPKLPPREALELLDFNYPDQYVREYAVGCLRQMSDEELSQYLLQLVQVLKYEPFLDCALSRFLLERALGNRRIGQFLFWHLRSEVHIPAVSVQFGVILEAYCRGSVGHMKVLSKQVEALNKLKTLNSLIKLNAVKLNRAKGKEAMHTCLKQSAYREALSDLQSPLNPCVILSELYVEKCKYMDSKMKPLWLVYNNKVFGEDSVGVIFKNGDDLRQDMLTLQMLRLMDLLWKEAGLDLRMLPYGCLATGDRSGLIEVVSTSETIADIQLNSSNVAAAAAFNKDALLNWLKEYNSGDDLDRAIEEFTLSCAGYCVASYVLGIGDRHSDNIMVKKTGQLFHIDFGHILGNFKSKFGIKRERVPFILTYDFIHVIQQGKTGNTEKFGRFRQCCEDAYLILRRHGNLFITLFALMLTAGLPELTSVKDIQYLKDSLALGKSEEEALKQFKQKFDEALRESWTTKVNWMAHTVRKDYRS
T3 sequence (P27986 whole entry partner): as the sequence (P27986 whole entry partner) above

Regarding `C[C@H](Nc1nc(N)nc(N)c1C#N)c1cc2ccc(F)cc2nc1-c1ccccn1` [p-toluenesulfonate of Compound A], the IC50 at PI3Kδ (p110δ/p85a) came out at 0.49 nM; at PI3Kγ, 29 nM; on PI3Kβ, 126 nM. For the same compound, the average tumor volume is recorded as 984.45 mm^3 in data set [1] (30 mg/kg p.o. QD) and 549.05 mm^3 in data set [1] (100 mg/kg p.o. QD). Moreover, the “relative tumor inhibition rate (TGI)” value in data set [1] (30 mg/kg p.o. QD) was 54%; in data set [1] (100 mg/kg p.o. QD), 75%. In addition, the “physical and chemical stability (purity and crystal form)” value in data set [2] (40° C./75% RH and 60° C., 7 days) was “no change in purity and crystal form”. Further, the “Purity (peak area %) Average - 40° C./75% RH - 7 d” value in data set [2] (solid, 40° C./75% RH, 7 d, average, listed as Sample 5) is 99.69 peak area %. In addition, in data set [2] (solid, 40° C./75% RH, 7 d, single determinations, listed as Sample 5), the “Purity (peak area %) 40° C./75% RH - 7 d” value is 99.68 peak area % and 99.69 peak area %. Also, in data set [2] (solid, 60° C., 7 d, average, listed as Sample 5), the “Purity (peak area %) Average - 60° C. - 7 d” value was determined as 99.65 peak area %. In data set [2] (solid, 60° C., 7 d, single determinations, listed as Sample 5), the “Purity (peak area %) 60° C. - 7 d” value was 99.56 peak area % and 99.74 peak area %. Moreover, in data set [2] (solid, day 0, average, listed as Sample 5), the “Purity (peak area %) Average - 0 d” value is given as 99.48 peak area %. Further, the “Purity (peak area %) 0 d” value in data set [2] (solid, day 0, single determinations, listed as Sample 5) is 99.46 peak area % and 99.49 peak area %. The “crystal form after grinding (XRPD)” value in data set [3] is reported as “still p-toluenesulfonate crystal form I”.
